Data published in patent US10617679B2, “Deuterated compounds and medical uses thereof” (JINGLUWEIDAI INFORMATION CONSULTING SERVICE (BEIJING) CO. …, priority 2016, dated 2020).

What was measured:
[1] = tested on: heart rate in rats; experiment: Effects on heart rate in rats; format: in vivo, SD rats
Description: (§1) SD rats (male, weight 160-180 g) were fasted for 12 hours before administration but had free access to drinking water. The rats were randomly divided into groups. They were anesthetized with an intraperitoneal injection of 50-60 mg/kg dose of sodium pentobarbital. Each rat was fixed on the back on the surgical table. The skin was cut from the center of the neck, and an incision of about 2.5 cm was made. The subcutaneous tissue and the median muscle were separated; the trachea was fully exposed; and the endotracheal intubation was performed. The subcutaneous tissue was separated from front to back on the right side; the right common carotid artery, the vagus nerve and the sympathetic nerve were exposed; and the carotid artery cannulation was performed. Finally, the endotracheal tube and the carotid artery cannula were respectively connected to a respiration transducer and a blood pressure transducer, and then connected to a multifunctional physiological recorder. At 30 minutes after surgery, the rats were intragastrically administrated. Heart rate and blood pressure were measured at different time points after administration.

[2] = tested on: rat formalin model; experiment: Analgesic effects of intragastric administration in a rat formalin model; format: in vivo, SD rats; conditions: mean ± SD; for Reaction time for phase I: licking time 0-5 min after formalin; for Reaction time for Phase II: licking time 15-30 min after formalin
Description: SD rats (male, weight 160-180 g) were randomly divided into groups with 6 rats in each group. After the rats were intragastrically administered different doses separately, they were placed in PVC observation boxes for habituation. After 30 min, the rats were injected subcutaneously with 20 μL of 2.7% formalin solution into the plantar surface of the left hind paws, and quickly put back in the PVC observation boxes for observation. The length of time the rats spent licking the injected-formalin paws at the early response (0-5 min, phase I) and the late response (15-30 min, Phase II) was recorded, and the analgesic activities of the test compounds were evaluated according to the length of time the rats spent licking during the period of observation. The experimental data were expressed as mean±standard deviation. The shorter the licking time, the better the analgesic effect of the compound.

[3] = tested on: Wistar rats; experiment: Evaluation of subacute toxicity (14 days, intragastric); format: in vivo; conditions: 40 mg/kg intragastric once a day for 14 days; for ALT / AST: rat
Description: Male Wistar rats were randomly divided into groups with 10 rats in each group and weighed. A certain concentration of a test sample was ground and suspended in a 0.5% sodium carboxymethyl cellulose solution. The sodium carboxymethyl cellulose suspension containing 40 mg/kg of the test compound and a blank sodium carboxymethyl cellulose suspension as a control were intragastrically administered, once a day for 14 consecutive days. After the last administration, the rats were fasted but had free access to drinking water for 12 hours, and then anesthetized. Their blood samples were obtained from the abdominal aortas. According to SOPB093 “Standard Operating Procedures for Serum Preparation” in National Beijing Center for Drug Safety Evaluation and Research, serum was prepared for the determination of blood biochemical and immunological indicators; according to SOPB032 “Preparation of vacuum tubes with EDTA anticoagulation”, EDTA anticoagulation was prepared for the general blood routine tests.

[4] = tested on: blood pressure in rats; experiment: Effects on blood pressure in rats; format: in vivo, SD rats
Description: as §1

[5] = tested on: oxycodone-induced place preference in rats; experiment: Inhibition of oxycodone-induced place preference in rats; format: in vivo, SD rats; conditions: day 10, within 15 minutes
Description: SD rats (male, weight 160-180 g) were placed in conditioned place preference (CPP) training boxes, where the partition door between the boxes was open. Time the rats spent in each of the boxes was recorded within 15 min in order to determine the natural tendency of the rats. The rats were then randomly divided into groups with 10 rats in each group according to the amount of time spent in the white box. The white box was a drug box, and the black box was a box with the absence of the drug. After intragastric administration with a test compound for 40 minutes, the rats were injected subcutaneously with oxycodone (2.5 mg/kg, s.c.) or saline, and immediately placed in the white box or the black box to be trained for 45 minutes, once a day for 9 consecutive days. On the 10th day, the rats were placed in the training boxes with the partition door open. The time the rats spent in the white box was recorded within 15 minutes to evaluate effects on place preference in the rats.

[6] = tested on: rat chronic sciatic nerve compression neuralgia model; experiment: Analgesic effects of intragastric administration in a rat chronic sciatic nerve compression neuralgia model; format: in vivo, SD rats; conditions: pain threshold 1 hour after administration
Description: SD rats (male, weight 160-180 g) were anesthetized using sodium pentobarbital (40 mg/kg), of which the sciatic nerves were separated in the middle segment of the right hind limbs. In the anterior segment of the sciatic nerve to be bifurcated, the sciatic nerve was separated from the surrounding tissue using a sterile glass hook. Four rings were loosely ligated with sterile chrome gut (No. 4, 0.15 mm in diameter) by an interval of 1 to 2 mm. Topically sprinkled with penicillin powder. The muscle tissue and skin were sutured. The rats were placed in a cage with cork dust. In the sham surgery group, the sciatic nerve was only exposed, and the other treatments were the same as described above. The rats after surgery were placed in a metal cage. […] The weight of the filament was recorded and set to be the threshold (in g). Meanwhile, the number of foot-lifting response to the 10 stimulations of the fiber filaments of different weights was recorded, and the highest threshold was set at 26 g.
5-6 rats in each group were intragastrically administered and the pain thresholds were measured 1 hour after administration. Statistical analysis of the thresholds was performed using non-parametric Wilcoxon 2-Sample Test and Kruskal-Wallis Test, and the data was analyzed with SASS data processing software. Analgesic percent (%)=(pain threshold after drug treatment−pain threshold before drug treatment)/(maximal analgesia threshold−pain threshold before drug treatment)[…].

[7] = 20 mg/kg intragastric, time point 0
[8] = 20 mg/kg intragastric, time point 30
[9] = 20 mg/kg intragastric, time point 60
[10] = 20 mg/kg intragastric, time point 90
[11] = 20 mg/kg intragastric, time point 120
[12] = 20 mg/kg intragastric, time point 180
[13] = 40 mg/kg intragastric, time point 0
[14] = 40 mg/kg intragastric, time point 30
[15] = 40 mg/kg intragastric, time point 60
[16] = 40 mg/kg intragastric, time point 90
[17] = 40 mg/kg intragastric, time point 120
[18] = 40 mg/kg intragastric, time point 180
[19] = test dose 10 mg/kg intragastric + oxycodone 2.5 mg/kg s.c.
[20] = test dose 20 mg/kg intragastric + oxycodone 2.5 mg/kg s.c.

Q: With `[2H]C([2H])([2H])Oc1cc2c(cc1OC)CCN1Cc3c(ccc(OC([2H])([2H])[2H])c3OC)C[C@@H]21` [Formula I6, (13a S)-3,9-dimethoxy-2,10-di-[(trideutero)-methoxy]-6,8,13,13a-tetrahydro-5H-isoquinolino[2,1-b]isoquinoline] as the compound, how does the Heart rate [1, 7] read?
A: 407.1 ± 43.4 BTM

Q: And the Heart rate [1, 8]?
A: 400.2 ± 29.4 BTM

Q: What about the Heart rate [1, 9] of the same compound?
A: 401.0 ± 28.47 BTM

Q: And the Heart rate [1, 10]?
A: 403.0 ± 30.2 BTM

Q: And the Heart rate [1, 11]?
A: 396.7 ± 36.3 BTM

Q: What about the Heart rate [1, 12] of the same compound?
A: 402.5 ± 28.8 BTM

Q: And the Heart rate [1, 13]?
A: 414.1 ± 37.6 BTM

Q: What about the Heart rate [1, 14] of the same compound?
A: 375.8 ± 29.3 BTM

Q: What about the Heart rate [1, 15] of the same compound?
A: 362.8 ± 20.7 BTM

Q: What about the Heart rate [1, 16] of the same compound?
A: 367.2 ± 27.0 BTM

Q: What about the Heart rate [1, 17] of the same compound?
A: 393.5 ± 34.6 BTM

Q: And the Heart rate [1, 18]?
A: 380.8 ± 30.5 BTM

Q: What about the “Reaction time for phase I” value ([2]; 20 mg/kg intragastric) of the same compound?
A: 41.9 ± 9.2 s

Q: And the “Reaction time for Phase II” value ([2]; 20 mg/kg intragastric)?
A: 66.7 ± 8.7 s

Q: And the “Reaction time for phase I” value ([2]; 40 mg/kg intragastric)?
A: 38.6 ± 9.4 s

Q: What about the “Reaction time for Phase II” value ([2]; 40 mg/kg intragastric) of the same compound?
A: 40.3 ± 9.0 s

Q: And the ALT [3]?
A: 165.3 ± 38.0 U/L

Q: What about the AST [3] of the same compound?
A: 251.8 ± 32.0 U/L

Q: What about the “histopathological examination of liver” value ([3]; result in words) of the same compound?
A: vacuolar degeneration of hepatocytes

Q: What about the “plasma ALT and AST versus control group” value ([3]; result in words) of the same compound?
A: significant increase

Q: And the Blood pressure [4, 7]?
A: 115.6 ± 21.9 mmHg

Q: What about the Blood pressure [4, 8] of the same compound?
A: 108.5 ± 10.75 mmHg

Q: What about the Blood pressure [4, 9] of the same compound?
A: 102.0 ± 11.4 mmHg

Q: What about the Blood pressure [4, 10] of the same compound?
A: 104.7 ± 10.70 mmHg

Q: And the Blood pressure [4, 11]?
A: 110.5 ± 6.8 mmHg

Q: What about the Blood pressure [4, 12] of the same compound?
A: 106.5 ± 13.7 mmHg

Q: What about the Blood pressure [4, 13] of the same compound?
A: 111.0 ± 21.4 mmHg

Q: And the Blood pressure [4, 14]?
A: 95.4 ± 14.5 mmHg

Q: What about the Blood pressure [4, 15] of the same compound?
A: 83.5 ± 10.30 mmHg

Q: What about the Blood pressure [4, 16] of the same compound?
A: 85.2 ± 8.0 mmHg

Q: What about the Blood pressure [4, 17] of the same compound?
A: 110.00 ± 11.6 mmHg

Q: What about the Blood pressure [4, 18] of the same compound?
A: 109.5 ± 14.1 mmHg

Q: And the “Time spent in the drug box (Mean ± S)” value [5, 19]?
A: 183.27 ± 33.97 s

Q: And the “Time spent in the drug box (Mean ± S)” value [5, 20]?
A: 129.35 ± 23.66 s

Q: And the Analgesic percent ([6]; 20 mg/kg intragastric)?
A: 63.80%

Q: And the Analgesic percent ([6]; 40 mg/kg intragastric)?
A: 69.12%

Q: `[2H]C([2H])([2H])Oc1cc2c(cc1OC([2H])([2H])[2H])[C@@H]1Cc3ccc(OC([2H])([2H])[2H])c(OC([2H])([2H])[2H])c3CN1CC2` [Formula I7, (13a S)-2,3,9,10-tetra-[(trideutero)-methoxy]-6,8,13,13a-tetrahydro-5H-isoquinolino[2,1-b]isoquinoline] was tested. Which Heart rate [1, 7] did it give?
A: 401.5 ± 32.1 BTM

Q: What about the Heart rate [1, 8] of the same compound?
A: 380.8 ± 33.4 BTM

Q: And the Heart rate [1, 9]?
A: 389.5 ± 26.6 BTM

Q: What about the Heart rate [1, 10] of the same compound?
A: 405.3 ± 31.0 BTM

Q: And the Heart rate [1, 11]?
A: 391.0 ± 24.9 BTM

Q: And the Heart rate [1, 12]?
A: 398.5 ± 28.8 BTM

Q: And the Heart rate [1, 13]?
A: 407.9 ± 29.5 BTM

Q: And the Heart rate [1, 14]?
A: 366.8 ± 27.7 BTM

Q: What about the Heart rate [1, 15] of the same compound?
A: 332.6 ± 24.9 BTM

Q: And the Heart rate [1, 16]?
A: 343.2 ± 21.0 BTM

Q: What about the Heart rate [1, 17] of the same compound?
A: 356.7 ± 25.8 BTM

Q: What about the Heart rate [1, 18] of the same compound?
A: 362.0 ± 32.1 BTM

Q: What about the “Reaction time for phase I” value ([2]; 20 mg/kg intragastric) of the same compound?
A: 45.2 ± 9.9 s

Q: What about the “Reaction time for Phase II” value ([2]; 20 mg/kg intragastric) of the same compound?
A: 58.2 ± 12.5 s

Q: What about the “Reaction time for phase I” value ([2]; 40 mg/kg intragastric) of the same compound?
A: 35.7 ± 9.0 s

Q: What about the “Reaction time for Phase II” value ([2]; 40 mg/kg intragastric) of the same compound?
A: 35.9 ± 13.6 s

Q: And the ALT [3]?
A: 84.5 ± 20.6 U/L

Q: What about the AST [3] of the same compound?
A: 143.8 ± 21.0 U/L

Q: What about the “plasma ALT and AST versus control group” value ([3]; result in words) of the same compound?
A: no significant difference

Q: And the Blood pressure [4, 7]?
A: 112.6 ± 27.5 mmHg

Q: And the Blood pressure [4, 8]?
A: 103.4 ± 11.7 mmHg

Q: And the Blood pressure [4, 9]?
A: 104.2 ± 9.8 mmHg

Q: And the Blood pressure [4, 10]?
A: 102.6 ± 7.2 mmHg

Q: What about the Blood pressure [4, 11] of the same compound?
A: 114.1 ± 11.3 mmHg

Q: And the Blood pressure [4, 12]?
A: 135.3 ± 15.6 mmHg

Q: What about the Blood pressure [4, 13] of the same compound?
A: 113.0 ± 11.4 mmHg

Q: What about the Blood pressure [4, 15] of the same compound?
A: 83.5 ± 7.2 mmHg

Q: And the Blood pressure [4, 16]?
A: 82.6 ± 6.5 mmHg

Q: What about the Blood pressure [4, 17] of the same compound?
A: 95.3 ± 9.5 mmHg

Q: And the Blood pressure [4, 18]?
A: 101.8 ± 8.1 mmHg

Q: And the “Time spent in the drug box (Mean ± S)” value [5, 19]?
A: 154.32 ± 21.38 s

Q: What about the “Time spent in the drug box (Mean ± S)” value [5, 20] of the same compound?
A: 135.40 ± 25.09 s

Q: And the Analgesic percent ([6]; 20 mg/kg intragastric)?
A: 70.67%

Q: What about the Analgesic percent ([6]; 40 mg/kg intragastric) of the same compound?
A: 73.53%
